According to US6962924B2, “Salt and polymorphs of desloratadine hemifumarate” (priority 2002, dated 2005):

Columns and labels:
[1] = Hygroscopicity (moisture absorption) in DVS; type: physicochemical; conditions: relative humidity (RH) of 90%
[2] = mixed with three volumes of lactose monohydrate, 40° C. and 75% RH, one week
[3] = Stability of the polymorphic form (vacuum at 50° C., crushing); type: physicochemical

Compound	moisture absorption value [1]	Appearance after stress storage (color, crystallinity, texture) [2]	moisture absorption value ([1]; listed as Desloratadine hemifumarate polymorphic form 2)	moisture absorption value ([1]; listed as desloratadine polymorphic form 1)	Change of polymorphic form under vacuum at 50° C. [3]
Clc1ccc2c(c1)CCc1cccnc1C2=C1CCNCC1 [Standard desloratadine, 8-chloro-6,11-dihydro-11-(4-piperidylidene)-5H-benzo[5,6]-cyclohepta[1,2-b]pyridine, reference compound]	0.3%	showed discoloration	–	–	–
Clc1ccc2c(c1)CCc1cccnc1C2=C1CCNCC1.Clc1ccc2c(c1)CCc1cccnc1C2=C1CCNCC1.O=C(O)C=CC(=O)O [Desloratadine hemifumarate (polymorph 2), Descarbonylethoxyloratadine Hemifumarate]	–	retained its crystallinity, color and the texture	0.3%	–	–
Clc1ccc2c(c1)CCc1cccnc1C2=C1CCNCC1.Clc1ccc2c(c1)CCc1cccnc1C2=C1CCNCC1.O=C(O)C=CC(=O)O [Desloratadine hemifumarate (polymorph 1), Descarbonylethoxyloratadine Hemifumarate]	–	retained its crystallinity, color and the texture	–	0.9%	can be changed to polymorphic form 2
